Source: ChEMBL document CHEMBL5604063, “ASAP - DENV-2 NS2B-NS3 protease fluorescence dose response” (2024)
Values joined by “and” are separate entries in the source; they are usually repeats but may differ in a detail not shown here. Equal values may be shown once.

Columns and labels:
[1] = biological target: T1, Genome polyprotein (dengue virus type 2, UniProt P29990); assay type: functional, Thailand/16681/1984
[2] = biological target: T1, Genome polyprotein; assay type: functional, Thailand/16681/1984; remark: listed apart in the source

T1 sequence (P29990 1346-1475 limits assumed): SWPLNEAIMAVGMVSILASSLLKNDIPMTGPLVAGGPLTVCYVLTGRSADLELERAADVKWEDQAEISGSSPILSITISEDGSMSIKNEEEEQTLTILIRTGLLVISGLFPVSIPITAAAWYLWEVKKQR
T1 sequence (P29990 1476-2093 limits assumed): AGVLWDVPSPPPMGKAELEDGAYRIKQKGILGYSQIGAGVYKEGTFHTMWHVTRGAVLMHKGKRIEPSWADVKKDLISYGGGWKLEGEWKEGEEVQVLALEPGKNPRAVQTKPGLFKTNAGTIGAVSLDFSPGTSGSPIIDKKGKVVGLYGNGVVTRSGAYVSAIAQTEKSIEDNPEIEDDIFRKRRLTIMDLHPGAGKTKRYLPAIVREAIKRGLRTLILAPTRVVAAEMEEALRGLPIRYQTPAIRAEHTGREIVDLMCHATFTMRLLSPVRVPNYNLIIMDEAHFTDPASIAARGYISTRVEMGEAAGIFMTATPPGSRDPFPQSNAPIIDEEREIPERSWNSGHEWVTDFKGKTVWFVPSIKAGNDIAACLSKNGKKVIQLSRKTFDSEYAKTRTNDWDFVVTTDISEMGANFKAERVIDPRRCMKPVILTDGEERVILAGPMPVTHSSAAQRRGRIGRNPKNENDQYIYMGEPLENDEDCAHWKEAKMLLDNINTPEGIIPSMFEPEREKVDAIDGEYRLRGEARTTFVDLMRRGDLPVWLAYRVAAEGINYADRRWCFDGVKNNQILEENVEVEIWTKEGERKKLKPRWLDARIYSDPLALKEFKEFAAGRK

| Compound | IC50 [1] | IC50 [2] |
| --- | --- | --- |
| COc1cc(Br)cc(C(=O)Nc2ccc3c(c2)CNC3)c1 | > 100 µM | > 99.5 µM |
| O=C1NCc2c1cccc2C(=O)Nc1ccc2c(c1)CNC2 | > 100 µM | > 99.5 µM |
| COCCNC(=O)[C@H](Nc1ccc2c(c1)CNC2)c1cc(Cl)cc(C2CC2)c1 | > 100 µM | > 99.5 µM |
| O=C(NCC(F)F)[C@H](Nc1ccc2c(c1)CNC2)c1cc(Cl)cc(C2CC2)c1 | > 100 µM | > 99.5 µM |
| CCCN1C(=O)[C@](C#N)(Nc2cccc(-c3nn[nH]n3)c2)c2cc(Cl)ccc21 | > 100 µM | > 99.5 µM |
| NCc1ccc(NC(=O)c2cc(Cl)cc3[nH]ncc23)cc1F | > 100 µM | > 99.5 µM |
| Cc1cc(NC(=O)c2cc(Cl)cc3[nH]ncc23)ccc1N1CCNCC1 | > 100 µM | 83.5 µM |
| Cc1ccc(C)n1-c1ccc(Cl)cc1C(=O)Nc1ccc2c(c1)CNC2 | > 100 µM | > 99.5 µM |
| N#C[C@H](Nc1ccc2c(c1)CNC2)c1cccc2[nH]ncc12 | > 100 µM | > 99.5 µM |
| O=c1[nH]c2cc(Cl)ccc2n1Cc1ccc(-c2nn[nH]n2)cc1 | > 100 µM | > 99.5 µM |
| O=C(Nc1ccc2c(c1)CNC2)c1cnnc2ccccc12 | > 100 µM | > 99.5 µM |
| O=C(Nc1ccc2c(c1)CNC2)N1CCC2(C1)CC(F)(F)C2 | > 100 µM | > 99.5 µM |
| C[C@H]1NCCc2c(-c3ccc4[nH]c(C(=O)O)cc4c3)cc(F)cc21 | > 100 µM | > 99.5 µM |
| Cn1nc(C2CC2)cc1C(=O)Nc1cc(CCCN)ccn1 | > 100 µM | > 99.5 µM |
| Cc1cc(C(F)(F)F)cc(C(=O)Nc2ccc3c(c2)CNC3)n1 | > 100 µM | 48.6 µM |
| NS(=O)(=O)c1ccc(C(F)F)cc1-c1ccc2[nH]c(C(=O)O)cc2c1 | > 100 µM | > 99.5 µM |
| O=C(Nc1ccc2c(c1)CNC2)[C@H]1CCCc2[nH]ncc21 | > 100 µM | > 99.5 µM |
| Cc1nc(C2CC2)sc1C(=O)Nc1cc(CCCN)ccn1 | > 100 µM | > 99.5 µM |
| O=C(Nc1ccc2c(c1)CNC2)c1ncnc2sccc12 | > 100 µM | > 99.5 µM |
| O=C(Nc1cc(Cl)cc(-c2ccc(C3(C(=O)O)CCNCC3)cc2)c1)OCc1ccccc1 | > 100 µM | > 99.5 µM |
| N[C@H]1CCc2ccc(NC(=O)c3cc(Cl)cc4[nH]ncc34)cc21 | > 100 µM | > 99.5 µM |
| O=C(Nc1ccc2c(c1)CNC2)c1c(Br)cc(Cl)c2[nH]ncc12 | > 100 µM | > 99.5 µM |

| Compound | IC50 [1] | IC50 [2] |
| --- | --- | --- |
| O=C(Nc1ccc2c(c1)CNC2)c1c(Br)ccc2[nH]ncc12 | > 100 µM | > 99.5 µM |
| N#C[C@]1(Nc2ccc3c(c2)CNC3)C(=O)Nc2ccc(Cl)cc21 | > 100 µM | > 99.5 µM |
| O=C(Nc1ccc2c(c1)CNC2)c1nccc2[nH]ncc12 | > 100 µM | > 99.5 µM |
| Cc1cc(-c2ccc3[nH]c(C(=O)O)cc3c2)c(=O)n(Cc2ccccc2)c1 | > 100 µM | > 99.5 µM |
| O=C(O)c1ccc2nc(Cc3c[nH]c4ccc(Cl)cc34)cn2c1 | > 100 µM | > 99.5 µM |
| CC(C)(C)OC(=O)N1Cc2ccc(NC(=O)c3cc(Cl)cc4[nH]ncc34)cc2C1 | > 100 µM | > 99.5 µM |
| Cn1ccc(-c2cc(CN)cc([C@@H]3C[C@H]3c3cc(Cl)cc(NC(=O)OCc4ccccc4)c3)c2)n1 | > 100 µM | 62.7 µM |
| CC(C)(C)OC(=O)Cc1cc(CN)cc(NC(=O)c2cc(Cl)cc(NC(=O)OCc3ccccc3)c2)c1 | > 100 µM | > 99.5 µM |
| Cn1nc(C(=O)Nc2cc(CCCN)ccn2)cc1C1CC1 | > 100 µM | > 99.5 µM |
| N#Cc1cc(Cl)cc([C@H](C#N)Nc2ccc3c(c2)CNC3)c1 | > 100 µM | > 99.5 µM |
| Cc1cnc([C@H]2CCCN(C(=O)Nc3ccc4c(c3)CNC4)C2)s1 | > 100 µM | > 99.5 µM |
| CC(C)c1ccc(Cl)cc1C(=O)Nc1ccc2c(c1)CNC2 | > 100 µM | > 99.5 µM |
| Clc1cc(CNc2ccc3c(c2)CNC3)c2cn[nH]c2c1 | > 100 µM | 18.9 µM and 54.9 µM |
| Cc1c(C(=O)Nc2cc(CCCN)ccn2)cnn1C1CC1 | > 100 µM | > 99.5 µM |
| O=C(Nc1ccc2c(c1)CNC2)c1cc(Cl)ccc1OC1CCCC1 | > 100 µM | > 99.5 µM |
| NCc1cc(C(F)(F)F)cc(-c2ccc3[nH]c(C(=O)O)cc3c2)n1 | > 100 µM | > 99.5 µM |
| O=C(Nc1ccc2c(c1)OCCNC2)c1cc(Cl)cc2[nH]ncc12 | > 100 µM | > 99.5 µM |
| CNC(=O)[C@]1(Nc2ccc3c(c2)CNC3)CCc2ccccc21 | > 100 µM | > 99.5 µM |
| Cn1cc(CNC(=O)[C@H](Nc2ccc3c(c2)CNC3)c2cc(Cl)cc(C3CC3)c2)cn1 | > 100 µM | > 99.5 µM |
| C(#C[C@H](Nc1ccc2c(c1)CNC2)c1cccc2[nH]ncc12)c1ccccc1 | > 100 µM | > 99.5 µM |
| O=C(O)c1cc2cc(-c3cc(Cl)cn4ncnc34)ccc2[nH]1 | > 100 µM | > 99.5 µM |
| O=C(Nc1ccc2c(c1)COC2)c1cc(Cl)cc2[nH]ncc12 | > 100 µM | > 99.5 µM |

| Compound | IC50 [1] | IC50 [2] |
| --- | --- | --- |
| O=C(Nc1ccc2c(c1)CN(CC(F)F)C2)c1cc(Cl)cc2[nH]ncc12 | > 100 µM | 58.7 µM |
| Cn1cc2cc(C#N)cc(-c3ccc4[nH]c(C(=O)O)cc4c3)c2n1 | > 100 µM | > 99.5 µM |
| NCc1ccc(NC(=O)c2cc(Cl)cc3[nH]ncc23)cc1 | > 100 µM | > 99.5 µM |
| Cn1cnc2nc(Cl)cc(C(=O)Nc3ccc4c(c3)CNC4)c21 | > 100 µM | > 99.5 µM |
| NCc1cc(NC(=O)c2cc(Cl)cc(NC(=O)OCc3ccccc3)c2)cc(-c2ccc3c(c2)C[C@H](C(=O)O)CO3)c1 | > 100 µM | 77.2 µM |
| C[C@H](NC(=O)c1cc(Cl)cc2[nH]ncc12)c1ccc2c(c1)CNC2 | > 100 µM | > 99.5 µM |
| O=C(O)c1cc2cc(-c3cccc([C@H]4CCOC4)n3)ccc2[nH]1 | > 100 µM | > 99.5 µM |
| O=C(Nc1ccc2c(c1)CNC2)c1cc(F)cc2[nH]ncc12 | 37.8 µM and 24.3 µM | 59.5 µM |
| NCCCc1ccnc(NC(=O)c2cc(C3CC3)no2)c1 | > 100 µM | > 99.5 µM |
| NCCc1cccc(NC(=O)c2cc(Cl)cc3[nH]ncc23)c1 | > 100 µM | > 99.5 µM |
| Cn1ncc2c(C(=O)Nc3ccc4c(c3)CNC4)cc(-c3cccnc3)nc21 | > 100 µM | 92.7 µM |
| O=C(c1cc(Cl)cc2[nH]ncc12)N1CC[C@]2(CCNC2)C1 | > 100 µM | > 99.5 µM |
| O=C(Nc1ccc2c(c1)CNCCO2)c1cc(Cl)cc2[nH]ncc12 | > 100 µM | > 99.5 µM |
| O=C(NC[C@H]1CCCO1)[C@H](Nc1ccc2c(c1)CNC2)c1cc(Cl)cc(C2CC2)c1 | > 100 µM | > 99.5 µM |
| CNC(=O)[C@]1(Nc2ccc3c(c2)CNC3)C(=O)Nc2c(OC)cc(Br)cc21 | > 100 µM | > 99.5 µM |
| NCc1cc(-c2ccncc2)cc([C@@H]2C[C@H]2c2cc(Cl)cc(NC(=O)OCc3ccccc3)c2)c1 | > 100 µM | > 99.5 µM |
| CC(=O)Nc1cc(Br)cc(C(=O)Nc2ccc3c(c2)CNC3)c1 | > 100 µM | > 99.5 µM |
| CCn1ncc2c(C(=O)Nc3ccc4c(c3)CNC4)cc(C)nc21 | > 100 µM | > 99.5 µM |
| O=C(O)c1ccc(NC(=O)c2cc(Cl)cc3[nH]ncc23)cc1 | > 100 µM | > 99.5 µM |
| N#C[C@H](Nc1cc(Cl)cc(C2CC2)c1)c1ccc(-c2nn[nH]n2)cc1 | 17.9 µM | 27.2 µM |
| Cc1ccc2[nH]ncc2c1C(=O)Nc1ccc2c(c1)CNC2 | > 100 µM | > 99.5 µM |
| O=C(Nc1ccc2c(c1)CNC2)c1ccc(OCC(F)(F)F)nc1 | > 100 µM | > 99.5 µM |

| Compound | IC50 [1] | IC50 [2] |
| --- | --- | --- |
| O=C(O)Cc1cn2nc(-c3cc(Cl)cc(NC(=O)OCc4ccccc4)c3)ccc2n1 | > 100 µM | > 99.5 µM |
| CNC(=O)c1ccnc(NC(=O)c2cc(C3CC3)n(C)c2C)c1 | > 100 µM | > 99.5 µM |
| NCc1cc(NC(=O)c2cc(Cl)cc(NC(=O)OCc3ccccc3)c2)cc(-c2ccc(OCC(=O)O)nc2)c1 | > 100 µM | > 99.5 µM |
| Cc1c(C(=O)Nc2cc([C@H]3CCOC3)ccn2)cc(C2CC2)n1C | > 100 µM | > 99.5 µM |
| O=C(Nc1ccc2c(c1)CNC2)c1ccc(F)c2[nH]ncc12 | > 100 µM | 69.7 µM |
| O=C(NCc1ccc(F)cc1)[C@H](Nc1ccc2c(c1)CNC2)c1cc(Cl)cc2[nH]ncc12 | > 100 µM | > 99.5 µM |
| O=C(O)c1cc2cc(-c3cc(Cl)cc4c3O[C@H](CO)C4)ccc2[nH]1 | > 100 µM | > 99.5 µM |
| O=C(Nc1cccc2c1CNC2)c1cc(Cl)cc2[nH]ncc12 | > 100 µM | > 99.5 µM |
| CCc1nc2ccc(Cl)cc2n1Cc1ccc2c(c1)CNC2 | > 100 µM | > 99.5 µM |
| CC(C)(C)c1[nH]c2ccc(F)cc2c1Cc1ccc(-c2nnn[nH]2)cc1 | 12.1 µM | 23.6 µM |
| O=C(O)Cn1nc2ccc(-c3cc(Cl)cc(NC(=O)OCc4ccccc4)c3)nn2c1=O | > 100 µM | > 99.5 µM |
| Cc1c(C(=O)Nc2ccc3c(c2)CNC3)cc(C2CC2)n1C | > 100 µM | > 99.5 µM |
| Cc1ccc(Oc2ncccc2C#N)c(-c2ccc3[nH]c(C(=O)O)cc3c2)c1 | > 100 µM | 87.2 µM |
| O=C(Nc1ccc2c(c1)CNC2)c1cncc(N2CCOCC2)c1 | > 100 µM | > 99.5 µM |
| CCn1c(C)cc(C(=O)Nc2cc(CCCN)ccn2)c1C | > 100 µM | > 99.5 µM |
| Cc1cc(C#N)cc2c(Cc3ccc(-c4nnn[nH]4)cc3)c[nH]c12 | 35 µM | 74.3 µM |
| COc1nnc(C(F)(F)F)cc1-c1ccc2[nH]c(C(=O)O)cc2c1 | > 100 µM | > 99.5 µM |
| Cc1c(C(=O)Nc2ncc3c(c2C#N)CCOC3)cc(C2CC2)n1C | > 100 µM | > 99.5 µM |
| COCCCN1Cc2ccc(NC(=O)c3cc(Cl)cc4[nH]ncc34)cc2C1 | > 100 µM | > 99.5 µM |
| O=C(Nc1ccc2c(c1)CNC2)c1cc(Cl)ccc1-n1ccnc1 | > 100 µM | > 99.5 µM |
